# Reference: patent US20130131089A1, “DOSAGE FORMS OF ELINOGREL AND METHODS OF INJECTABLE ADMINISTRATION THEREOF” (Portola Phamaceuticals Inc., priority 2010, published 2013)
# Read-outs that look alike come from different tables or passages of the source.
# What was measured:
# [1] = Kinetic solubility in liquid formulation containing mannitol and glycine buffer; type: physicochemical; conditions: 4% mannitol; for Solubility (kinetic): 50 mM glycine sodium; for solubility kinetic at 1 day / solubility kinetic at 2 day / solubility kinetic at 3 day / solubility kinetic at 4 day / solubility kinetic at 5 day: IV vehicle: 50 mM glycine sodium, thermodynamic from solid; for solubility kinetic at 5 day: pH 8.8, Day 5
# Method: Three solid state forms of Elinogrel were tested: i.e., Form B (mono potassium hemi hydrate), Form C (hemi potassium trihydrate), and the Free Acid form. Excess Elinogrel (i.e., ˜10 mg/ml when fully dissolved) was equilibrated with the IV vehicle composed of 50 mM glycine sodium and 4% mannitol at RT or refrigerated. The pH was monitored and adjusted to the target range using NaOH or HCl.
# [2] = Solubility in co-solvents (propylene glycol, ethanol); type: physicochemical; conditions: propylene glycol/ethanol co-solvent mixture, aqueous with cosolvent or surfactant or cyclodextrin, thermodynamic from solid, 10% EtOH, no pH adjustment, 25° C.
# Method: Excess Elinogrel potassium solids were added into ½ mL of 25% or 75% propylene glycol with 10% ethanol and the suspensions were equilibrated for 12 days at ambient temperature. Solubilities were determined by analyzing concentration of supernatants via HPLC.
# [3] = Solubility in sodium sulfobutyl ether β-cyclodextrin solutions over time; type: physicochemical
# Method: A set of samples in 0, 10, 20, and 40% sodium sulfobutyl ether β-cyclodextrin with no pH adjustment were equilibrated for 12 days and concentrations of supernatants at 1, 3, 6, and 12 days were determined.
# The solubility results of Elinogrel potassium at various sodium sulfobutyl ether β-cyclodextrin concentrations as a function of time (without pH adjustment) are shown in Table 4. […] There is a continued decrease of solubility overtime, before it approaching plateau at each SBE-β-CD level.
# [4] = pH 9.3
# Method: (§1) The white to off-white wet solids were collected by centrifugation at 13,000 rpm for 5 min and supernatant removal.
# [5] = physchem; conditions: thermodynamic from solid, S (solubility)
# Method: as §1
# [6] = system: Male New Zealand White rabbits; test: Rabbit vein and tissue irritation study; type: in vivo; conditions: 4% mannitol, perivascular and subcutaneous, 5 days
# Method: Male New Zealand White rabbits were utilized in this study. Rabbits received 3 injections:
# Intravenous (IV): 1.0 mL in left marginal ear vein;
# Perivascular: 0.5 mL near the right marginal ear vein; and
# Subcutaneous (SC): 1.0 mL in the scapular region of the dorsal back.
# There were four rabbits per each of the following dose groups.
# Normal Saline: 0.9% sodium chloride
# Vehicle: 10 mM sodium glycine, 4% mannitol, pH 9.31
# Elinogrel (Na salt) at 16.7 mg/mL in 10 mM glycine, 4% mannitol, pH 9.33
# Elinogrel (K salt) at 4.0 mg/mL in 50 mM glycine, 4% mannitol, pH 9.38
# On day 5, tissues (ears and skin) were harvested and processed for histological examination of the injection site.
# [7] = pKa, logP and logD of Elinogrel; type: physicochemical
# [8] = Thermodynamic solubility at different pH at 37° C.; type: physicochemical; conditions: aqueous slurry, thermodynamic from solid
# Method: The thermodynamic solubility of Elinogrel potassium salt and free acid in pH range of 1-10 at 37° C. was also determined. Excess Elinogrel free acid or potassium salt (start from Form B) was equilibrated with its aqueous slurries at various pH under constant agitation. Different amounts of NaOH or HCl solution were used to adjust pH. Solubility was determined after 3 days by analyzing the elinogrel concentration in supernatant of the slurry after ultracentrifugation.
# [9] = Aqueous solubility of the free acid form; type: physicochemical; conditions: aqueous medium, aqueous buffer; pH 1.0-7.4
smiles,measurement,setting,value
CNc1cc2[nH]c(=O)n(-c3ccc(NC(=O)NS(=O)(=O)c4ccc(Cl)s4)cc3)c(=O)c2cc1F [Elinogrel potassium (Form B)],Solubility (kinetic),"[1]; RT, pH 8.8, Day 1, listed as Elinogrel K salt-Form B, potassium salt",5930 µg/mL
same,Solubility (kinetic),"[1]; RT, pH 8.8, Day 2, listed as Elinogrel K salt-Form B, potassium salt",5200 µg/mL
same,Solubility (kinetic),"[1]; RT, pH 8.8, Day 3, listed as Elinogrel K salt-Form B, potassium salt",1750 µg/mL
same,Solubility (kinetic),"[1]; RT, pH 8.8, Day 4, listed as Elinogrel K salt-Form B, potassium salt",2080 µg/mL
same,Solubility (kinetic),"[1]; RT, pH 8.8, Day 5, listed as Elinogrel K salt-Form B, potassium salt",1370 µg/mL
same,Solubility (kinetic),"[1]; RT, pH 9, Day 1, listed as Elinogrel K salt-Form B, potassium salt",5890 µg/mL
same,Solubility (kinetic),"[1]; RT, pH 9, Day 2, listed as Elinogrel K salt-Form B, potassium salt",3560 µg/mL
same,Solubility (kinetic),"[1]; RT, pH 9, Day 3, listed as Elinogrel K salt-Form B, potassium salt",1780 µg/mL
same,Solubility (kinetic),"[1]; RT, pH 9, Day 4, listed as Elinogrel K salt-Form B, potassium salt",1950 µg/mL
same,Solubility (kinetic),"[1]; RT, pH 9, Day 5, listed as Elinogrel K salt-Form B, potassium salt",1290 µg/mL
same,solubility kinetic at 1 day,"[1]; 5 °C, pH 8.8, aqueous buffer, 5° C., pH 8.8, Day 1",5480 µg/mL
same,solubility kinetic at 2 day,"[1]; 5 °C, pH 8.8, aqueous buffer, 5° C., pH 8.8, Day 2",4020 µg/mL
same,solubility kinetic at 3 day,"[1]; 5 °C, pH 8.8, aqueous buffer, 5° C., pH 8.8, Day 3",1580 µg/mL
same,solubility kinetic at 4 day,"[1]; 5 °C, pH 8.8, aqueous buffer, 5° C., pH 8.8, Day 4",1580 µg/mL
same,solubility kinetic at 5 day,"[1]; 5 °C, pH 8.8, aqueous buffer, 5° C.",1110 µg/mL
same,solubility at 12 d,"[2]; 25% PG, pH 7.0, read-out: S (solubility)",8000 µg/mL
same,solubility at 12 d,"[2]; 75% PG, pH 7.3, read-out: S (solubility)",21000 µg/mL
CNc1cc2[nH]c(=O)n(-c3ccc(NC(=O)NS(=O)(=O)c4ccc(Cl)s4)cc3)c(=O)c2cc1F [Elinogrel potassium (Form C)],Solubility (kinetic),"[1]; RT, pH 8.8, Day 1, listed as Elinogrel K-Form C, potassium salt",2360 µg/mL
same,Solubility (kinetic),"[1]; RT, pH 8.8, Day 2, listed as Elinogrel K-Form C, potassium salt",1920 µg/mL
same,solubility kinetic at 3 day,"[1]; pH 8.8, aqueous buffer, RT, pH 8.8, Day 3",1790 µg/mL
same,solubility kinetic at 4 day,"[1]; pH 8.8, aqueous buffer, RT, pH 8.8, Day 4",2150 µg/mL
same,solubility kinetic at 5 day,"[1]; pH 8.8, aqueous buffer, RT",1450 µg/mL
same,solubility in 20% sodium sulfobutyl ether β-cyclodextrin relative to that in water,[3]; 20% sodium sulfobutyl ether β-cyclodextrin vs water,approximately 4 fold
same,Elinogrel potassium conc.,"[3]; 20% sodium sulfobutyl ether β-cyclodextrin, 12 d, no pH adjustment (pH~7), potassium salt",11.5 mg/mL
CNc1cc2[nH]c(=O)n(-c3ccc(NC(=O)NS(=O)(=O)c4ccc(Cl)s4)cc3)c(=O)c2cc1F [Elinogrel sodium hydrate],S (solubility),[4],17000 µg/mL
same,solubility,"[5]; 4 °C, water",13000 µg/mL
same,solubility,"[5]; pH 9.2, water",23000 µg/mL
same,solubility,"[5]; pH 9.3, aqueous buffer",16000 µg/mL
"CNc1cc2[nH]c(=O)n(-c3ccc(NC(=O)NS(=O)(=O)c4ccc(Cl)s4)cc3)c(=O)c2cc1F [Elinogrel, [4-(6-Fluoro-7-methylamino-2,4-dioxo-1,4-dihydro-2H-quinazolin-3-yl)-phenyl]-5-chloro-thiophen-2-yl-sulfonylurea]",tolerability of injection,"[6]; K salt at 4.0 mg/mL in 50 mM glycine, pH 9.38, intravenous",well tolerated
same,tolerability of injection,"[6]; Na salt at 16.7 mg/mL in 10 mM glycine, pH 9.33, intravenous",well tolerated
same,Solubility (kinetic),"[1]; RT, pH 9, Day 5, listed as Elinogrel free acid-Form B",4050 µg/mL
same,solubility kinetic at 1 day,"[1]; pH 9, aqueous buffer, RT, pH 9, Day 1",3140 µg/mL
same,solubility kinetic at 2 day,"[1]; pH 9, aqueous buffer, RT, pH 9, Day 2",3230 µg/mL
same,solubility kinetic at 3 day,"[1]; pH 9, aqueous buffer, RT, pH 9, Day 3",3330 µg/mL
same,solubility kinetic at 4 day,"[1]; pH 9, aqueous buffer, RT, pH 9, Day 4",2650 µg/mL
same,logP,[7],about 2.5
same,pKa,[7],~3.3
same,logD,[7]; pH 7.4,about −1.6
same,solubility thermodynamic at 3 days,"[8]; aqueous buffer, pH 3.00",0.057 µg/mL
same,solubility thermodynamic at 3 days,"[8]; aqueous buffer, pH 8.11",418 µg/mL
same,solubility thermodynamic at 3 days,"[8]; pH 1.1, simulated gastric fluid, pH 1.10",0.03 µg/mL
same,solubility thermodynamic at 3 days,"[8]; pH adjusted with NaOH or HCl, aqueous buffer, pH 5.97",0.544 µg/mL
same,solubility thermodynamic at 3 days,"[8]; pH adjusted with NaOH or HCl, aqueous buffer, pH 6.61",2.17 µg/mL
same,solubility thermodynamic at 3 days,"[8]; pH adjusted with NaOH or HCl, aqueous buffer, pH 7.22",46.6 µg/mL
same,solubility thermodynamic at 3 days,"[8]; pH adjusted with NaOH or HCl, pH 4.2, aqueous buffer, pH 4.20",0.022 µg/mL
same,solubility thermodynamic at 3 days,"[8]; simulated gastric fluid, pH 1.88",0.002 µg/mL
same,solubility,[9],< 100 µg/mL
